Measured values taken from ChEMBL document CHEMBL5678816, “A Next-Generation TRK Kinase Inhibitor Overcomes Acquired Resistance to Prior TRK Kinase Inhibition in Patients with TRK Fusion-Positive Solid Tumors” (Cancer Discov, 2017).
Calls of active or inactive are those of the source. No cut-off for these calls is given here.

Assays:
[1] = target: Insulin-like growth factor 1 receptor (Homo sapiens) (UniProt P08069); experiment: Inhibition of Activated IGF-1R (unknown origin) at 1 uM in presence of ATP relative to control; values are per cent of control
[2] = target: Serine/threonine-protein kinase 3 (Homo sapiens) (UniProt Q13188); experiment: Inhibition of MST2 (unknown origin) at 1 uM in presence of ATP relative to control; values are per cent of control
[3] = test system: KG-1; experiment: Inhibition of cell proliferation in human KG-1 cells upto 10 umol/L incubated for 72 hrs by DAPI staining based analysis; type: functional; settings: dose <= 10.0 µmol/L
[4] = target: Platelet-derived growth factor receptor beta (Homo sapiens) (UniProt P09619); experiment: Inhibition of PDGFRbeta (unknown origin) at 1 uM in presence of ATP relative to control; values are per cent of control
[5] = test system: SK-LMS-1; experiment: Inhibition of cell proliferation in human SK-LMS-1 cells upto 10 umol/L incubated for 72 hrs by DAPI staining based analysis; type: functional; settings: dose <= 10.0 µmol/L
[6] = target: Serine/threonine-protein kinase haspin (Homo sapiens) (UniProt Q8TF76); experiment: Inhibition of Haspin (unknown origin) at 1 uM in presence of ATP relative to control; values are per cent of control
[7] = target: Platelet-derived growth factor receptor alpha (Homo sapiens) (UniProt P16234); experiment: Inhibition of PDGFRalpha (unknown origin) at 1 uM in presence of ATP relative to control; values are per cent of control
[8] = target: Serine/threonine-protein kinase Chk2 (Homo sapiens) (UniProt O96017); experiment: Inhibition of CHK2 (unknown origin) at 1 uM in presence of ATP relative to control; values are per cent of control
[9] = target: Ephrin type-A receptor 5 (Homo sapiens) (UniProt P54756); experiment: Inhibition of EphA5 (unknown origin) at 1 uM in presence of ATP relative to control; values are per cent of control
[10] = Cmax in pediatric patient with recurrent ETV6-NTRK3-rearranged infantile fibrosarcoma at 100 mg administered twice a day as liquid formulation for 29 day by LC-MS/MS analysis; type: ADME; settings: human, in vivo
[11] = target: Serine/threonine-protein kinase TBK1 (Homo sapiens) (UniProt Q9UHD2); experiment: Inhibition of TBK1 (unknown origin) at 1 uM in presence of ATP relative to control; values are per cent of control
[12] = test system: U138-MG; experiment: Inhibition of cell proliferation in human U138-MG cells upto 10 umol/L incubated for 72 hrs by DAPI staining based analysis; type: functional; settings: dose <= 10.0 µmol/L
[13] = target: Tyrosine-protein kinase Blk (Homo sapiens) (UniProt P51451); experiment: Inhibition of BLK (unknown origin) at 1 uM in presence of ATP relative to control; values are per cent of control
[14] = target: Tyrosine-protein kinase JAK2 (Homo sapiens) (UniProt O60674); experiment: Inhibition of JAK2 (unknown origin) at 1 uM in presence of ATP relative to control; values are per cent of control
[15] = target: Serine/threonine-protein kinase ULK2 (Homo sapiens) (UniProt Q8IYT8); experiment: Inhibition of ULK2 (unknown origin) at 1 uM in presence of ATP relative to control; values are per cent of control
[16] = species: Homo sapiens; experiment: Inhibition of TEC Activated (unknown origin) at 1 uM in presence of ATP relative to control; values are per cent of control
[17] = target: Ephrin type-B receptor 1 (Homo sapiens) (UniProt P54762); experiment: Inhibition of EphB1 (unknown origin) at 1 uM in presence of ATP relative to control; values are per cent of control
[18] = Cmax in pediatric patient with recurrent ETV6-NTRK3-rearranged infantile fibrosarcoma at 20 mg administered twice a day as liquid formulation for 1 day by LC-MS/MS analysis; type: ADME; settings: human, in vivo
[19] = target: Dual specificity protein kinase CLK2 (Homo sapiens) (UniProt P49760); experiment: Inhibition of CLK2 (unknown origin) at 1 uM in presence of ATP relative to control; values are per cent of control
[20] = test system: TT; experiment: Inhibition of cell proliferation in human TT cells upto 10 umol/L incubated for 72 hrs by DAPI staining based analysis; type: functional; settings: dose <= 10.0 µmol/L
[21] = target: Mitogen-activated protein kinase kinase kinase kinase 2 (Homo sapiens) (UniProt Q12851); experiment: Inhibition of MAP4K2 (unknown origin) at 1 uM in presence of ATP relative to control; values are per cent of control
[22] = Toxicity in nu/nu NCr mouse implanted with mouse NIH3T3 cells harboring extracellular domain deleted TRKA G595R mutant assessed as body weight loss at 30 to 300 mg/kg, po administered twice daily for 12 days relative to control; type: organism-based; settings: in vivo, 288 h, dose 30-300 mg/kg, time 12 day
[23] = target: Calcium/calmodulin-dependent protein kinase type 1 (Homo sapiens) (UniProt Q14012); experiment: Inhibition of CAMK1 (unknown origin) at 1 uM in presence of ATP relative to control; values are per cent of control
[24] = target: MAP kinase-activated protein kinase 5 (Homo sapiens) (UniProt Q8IW41); experiment: Inhibition of MAPKAP-K5 (unknown origin) at 1 uM in presence of ATP relative to control; values are per cent of control
[25] = target: cGMP-dependent protein kinase 1 (Homo sapiens) (UniProt Q13976); experiment: Inhibition of PRKG1beta (unknown origin) at 1 uM in presence of ATP relative to control; values are per cent of control
[26] = target: Tyrosine-protein kinase SYK (Homo sapiens) (UniProt P43405); experiment: Inhibition of Syk (unknown origin) at 1 uM in presence of ATP relative to control; values are per cent of control
[27] = target: Tyrosine-protein kinase CSK (Homo sapiens) (UniProt P41240); experiment: Inhibition of CSK (unknown origin) at 1 uM in presence of ATP relative to control; values are per cent of control
[28] = test system: TPC1; experiment: Inhibition of cell proliferation in human TPC1 cells upto 10 umol/L incubated for 72 hrs by DAPI staining based analysis; type: functional; settings: dose <= 10.0 µmol/L
[29] = target: Macrophage colony-stimulating factor 1 receptor (Homo sapiens) (UniProt P07333); experiment: Inhibition of Fms (unknown origin) at 1 uM in presence of ATP relative to control; values are per cent of control

Chain of Serine/threonine-protein kinase TBK1 (Homo sapiens) (Q9UHD2 whole entry): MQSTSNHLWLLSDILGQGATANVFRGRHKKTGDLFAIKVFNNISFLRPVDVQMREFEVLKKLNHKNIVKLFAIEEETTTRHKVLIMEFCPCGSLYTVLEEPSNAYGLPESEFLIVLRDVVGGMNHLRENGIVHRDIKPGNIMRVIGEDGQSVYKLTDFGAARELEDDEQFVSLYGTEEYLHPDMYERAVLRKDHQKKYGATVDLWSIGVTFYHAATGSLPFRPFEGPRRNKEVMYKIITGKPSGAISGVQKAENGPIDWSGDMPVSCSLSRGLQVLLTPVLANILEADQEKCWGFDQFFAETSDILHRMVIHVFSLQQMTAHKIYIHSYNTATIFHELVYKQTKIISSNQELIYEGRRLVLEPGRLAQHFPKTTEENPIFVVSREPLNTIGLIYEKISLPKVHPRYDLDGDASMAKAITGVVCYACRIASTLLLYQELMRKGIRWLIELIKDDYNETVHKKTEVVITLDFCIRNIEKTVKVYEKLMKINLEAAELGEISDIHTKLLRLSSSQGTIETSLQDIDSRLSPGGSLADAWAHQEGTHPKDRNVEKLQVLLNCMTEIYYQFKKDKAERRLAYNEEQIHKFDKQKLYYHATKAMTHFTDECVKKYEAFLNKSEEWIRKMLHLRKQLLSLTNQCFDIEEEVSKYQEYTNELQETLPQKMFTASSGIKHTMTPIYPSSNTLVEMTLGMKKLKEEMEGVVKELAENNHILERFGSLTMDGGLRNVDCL
Chain of Calcium/calmodulin-dependent protein kinase type 1 (Homo sapiens) (Q14012 whole entry, looked up): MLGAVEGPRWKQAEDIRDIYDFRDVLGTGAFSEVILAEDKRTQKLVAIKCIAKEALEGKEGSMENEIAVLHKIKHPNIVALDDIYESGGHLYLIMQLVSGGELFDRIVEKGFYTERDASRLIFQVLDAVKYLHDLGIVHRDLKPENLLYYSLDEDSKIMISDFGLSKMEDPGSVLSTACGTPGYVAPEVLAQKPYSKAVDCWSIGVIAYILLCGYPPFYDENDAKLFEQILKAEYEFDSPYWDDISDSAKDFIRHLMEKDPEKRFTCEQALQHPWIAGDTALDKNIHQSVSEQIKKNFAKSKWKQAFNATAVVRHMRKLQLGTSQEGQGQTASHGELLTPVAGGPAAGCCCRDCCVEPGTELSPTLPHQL
Chain of Dual specificity protein kinase CLK2 (Homo sapiens) (P49760 whole entry, looked up): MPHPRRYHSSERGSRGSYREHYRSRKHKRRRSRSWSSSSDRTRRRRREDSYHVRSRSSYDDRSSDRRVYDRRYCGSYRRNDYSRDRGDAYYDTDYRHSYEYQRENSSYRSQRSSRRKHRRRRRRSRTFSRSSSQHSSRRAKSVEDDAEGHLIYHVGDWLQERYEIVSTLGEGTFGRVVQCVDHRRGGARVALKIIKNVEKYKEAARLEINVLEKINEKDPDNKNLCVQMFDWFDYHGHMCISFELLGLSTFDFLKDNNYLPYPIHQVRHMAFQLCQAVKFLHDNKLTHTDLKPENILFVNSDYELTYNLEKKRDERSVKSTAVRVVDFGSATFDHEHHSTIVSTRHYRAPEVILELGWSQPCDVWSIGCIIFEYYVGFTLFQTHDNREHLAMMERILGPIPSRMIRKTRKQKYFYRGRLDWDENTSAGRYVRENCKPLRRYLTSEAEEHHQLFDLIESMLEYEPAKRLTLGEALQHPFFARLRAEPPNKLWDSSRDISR
Chain of Serine/threonine-protein kinase ULK2 (Homo sapiens) (Q8IYT8 whole entry): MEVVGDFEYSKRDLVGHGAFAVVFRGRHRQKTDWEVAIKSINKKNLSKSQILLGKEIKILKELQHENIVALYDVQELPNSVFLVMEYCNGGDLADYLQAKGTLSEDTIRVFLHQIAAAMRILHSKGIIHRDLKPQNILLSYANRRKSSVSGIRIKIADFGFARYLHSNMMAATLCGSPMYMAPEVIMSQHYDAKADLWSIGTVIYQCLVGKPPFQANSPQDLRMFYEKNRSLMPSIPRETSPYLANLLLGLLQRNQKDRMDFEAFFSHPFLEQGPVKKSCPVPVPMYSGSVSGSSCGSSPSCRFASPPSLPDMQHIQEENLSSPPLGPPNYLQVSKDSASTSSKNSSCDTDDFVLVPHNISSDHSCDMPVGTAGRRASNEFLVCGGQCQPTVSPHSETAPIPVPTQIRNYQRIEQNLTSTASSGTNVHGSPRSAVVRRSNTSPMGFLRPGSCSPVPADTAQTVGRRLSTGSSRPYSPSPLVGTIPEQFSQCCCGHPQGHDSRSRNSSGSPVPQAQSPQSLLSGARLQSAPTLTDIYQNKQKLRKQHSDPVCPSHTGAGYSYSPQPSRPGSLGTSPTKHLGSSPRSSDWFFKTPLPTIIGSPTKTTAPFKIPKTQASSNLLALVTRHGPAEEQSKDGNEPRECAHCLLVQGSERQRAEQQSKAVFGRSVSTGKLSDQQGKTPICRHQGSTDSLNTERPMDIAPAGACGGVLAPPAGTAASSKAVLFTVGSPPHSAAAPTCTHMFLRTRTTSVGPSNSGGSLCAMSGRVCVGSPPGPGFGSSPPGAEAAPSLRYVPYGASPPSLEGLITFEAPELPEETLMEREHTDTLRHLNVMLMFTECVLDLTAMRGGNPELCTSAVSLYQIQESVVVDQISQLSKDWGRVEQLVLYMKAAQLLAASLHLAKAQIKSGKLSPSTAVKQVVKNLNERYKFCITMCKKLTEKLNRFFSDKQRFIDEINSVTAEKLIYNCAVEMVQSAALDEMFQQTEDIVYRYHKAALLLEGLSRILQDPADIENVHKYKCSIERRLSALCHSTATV
Chain of Platelet-derived growth factor receptor alpha (Homo sapiens) (P16234 whole entry): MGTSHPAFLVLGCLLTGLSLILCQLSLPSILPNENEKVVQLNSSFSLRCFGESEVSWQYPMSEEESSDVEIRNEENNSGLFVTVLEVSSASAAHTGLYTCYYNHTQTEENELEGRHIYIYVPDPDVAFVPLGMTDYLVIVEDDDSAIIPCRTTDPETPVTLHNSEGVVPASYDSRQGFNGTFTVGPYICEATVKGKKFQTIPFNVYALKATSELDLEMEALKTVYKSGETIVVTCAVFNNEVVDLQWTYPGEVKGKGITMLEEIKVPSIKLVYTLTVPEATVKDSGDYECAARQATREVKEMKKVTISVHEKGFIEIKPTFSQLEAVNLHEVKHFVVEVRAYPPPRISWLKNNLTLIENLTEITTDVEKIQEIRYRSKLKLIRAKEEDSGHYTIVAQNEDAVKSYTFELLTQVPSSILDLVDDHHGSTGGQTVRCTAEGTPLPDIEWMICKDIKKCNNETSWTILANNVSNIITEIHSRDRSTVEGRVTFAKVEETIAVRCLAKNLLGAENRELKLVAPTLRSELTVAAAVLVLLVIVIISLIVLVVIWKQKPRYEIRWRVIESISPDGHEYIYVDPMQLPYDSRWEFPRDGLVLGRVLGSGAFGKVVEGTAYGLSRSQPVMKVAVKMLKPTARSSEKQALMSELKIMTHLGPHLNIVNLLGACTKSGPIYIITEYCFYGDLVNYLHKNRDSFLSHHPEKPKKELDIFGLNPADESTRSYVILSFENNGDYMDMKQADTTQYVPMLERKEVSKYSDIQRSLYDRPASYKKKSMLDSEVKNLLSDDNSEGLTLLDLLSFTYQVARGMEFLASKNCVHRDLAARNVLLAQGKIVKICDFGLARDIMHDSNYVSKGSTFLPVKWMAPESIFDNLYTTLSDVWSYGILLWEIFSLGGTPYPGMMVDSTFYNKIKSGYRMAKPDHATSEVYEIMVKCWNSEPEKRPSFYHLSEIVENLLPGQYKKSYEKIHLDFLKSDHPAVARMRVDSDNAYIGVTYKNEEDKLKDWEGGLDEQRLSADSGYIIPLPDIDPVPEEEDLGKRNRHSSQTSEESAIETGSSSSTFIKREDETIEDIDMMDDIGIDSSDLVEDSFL
Chain of Serine/threonine-protein kinase 3 (Homo sapiens) (Q13188 whole entry): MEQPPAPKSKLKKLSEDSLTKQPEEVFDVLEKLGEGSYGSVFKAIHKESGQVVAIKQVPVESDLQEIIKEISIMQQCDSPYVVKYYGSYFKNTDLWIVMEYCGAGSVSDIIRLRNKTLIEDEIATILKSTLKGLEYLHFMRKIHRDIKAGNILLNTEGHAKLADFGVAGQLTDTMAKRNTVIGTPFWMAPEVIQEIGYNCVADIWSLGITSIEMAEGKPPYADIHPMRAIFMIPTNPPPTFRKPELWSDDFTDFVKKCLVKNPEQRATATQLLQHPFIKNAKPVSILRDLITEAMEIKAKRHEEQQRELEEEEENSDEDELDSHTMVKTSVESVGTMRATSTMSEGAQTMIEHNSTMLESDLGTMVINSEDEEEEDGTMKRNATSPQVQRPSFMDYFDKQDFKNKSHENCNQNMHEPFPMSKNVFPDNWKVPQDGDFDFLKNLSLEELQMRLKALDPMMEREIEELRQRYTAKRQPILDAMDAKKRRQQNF
Chain of Tyrosine-protein kinase Blk (Homo sapiens) (P51451 2-505 limits assumed): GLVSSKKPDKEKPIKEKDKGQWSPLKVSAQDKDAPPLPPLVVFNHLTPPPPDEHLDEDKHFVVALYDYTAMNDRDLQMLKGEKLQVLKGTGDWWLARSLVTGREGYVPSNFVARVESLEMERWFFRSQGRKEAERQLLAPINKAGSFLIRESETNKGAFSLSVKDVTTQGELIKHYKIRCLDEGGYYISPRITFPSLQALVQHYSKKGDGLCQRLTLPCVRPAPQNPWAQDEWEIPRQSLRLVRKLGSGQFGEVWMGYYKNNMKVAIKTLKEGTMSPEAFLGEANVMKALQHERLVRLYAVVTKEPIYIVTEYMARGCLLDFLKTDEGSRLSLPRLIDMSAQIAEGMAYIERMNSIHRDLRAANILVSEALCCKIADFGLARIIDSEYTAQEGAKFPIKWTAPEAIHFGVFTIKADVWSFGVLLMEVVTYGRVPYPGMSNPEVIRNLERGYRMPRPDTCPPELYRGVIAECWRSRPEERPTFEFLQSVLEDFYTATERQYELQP

- residual activity [1]: 84.5%
- residual activity [2]: 112%
- residual activity [4]: 112%
- residual activity [6]: 110%
- residual activity [7]: 104%
- residual activity [8]: 99.5%
- residual activity [9]: 90%
- Cmax [10]: 776 ng/mL
- residual activity [11]: 111%
- residual activity [13]: 108%
- residual activity [14]: 37.5%
- residual activity [15]: 96%
- residual activity [16]: 112%
- residual activity [17]: 112%
- Cmax [18]: 143 ng/mL
- residual activity [19]: 96.5%
- residual activity [21]: 102%
- residual activity [23]: 107%
- residual activity [24]: 97%
- residual activity [25]: 114%
- residual activity [26]: 114%
- residual activity [27]: 112%
- residual activity [29]: 87.5%
Structure (SMILES): C[C@@H]1CCc2ncc(F)cc2[C@H]2CCCN2c2ccn3ncc(c3n2)C(=O)N1 [SELITRECTINIB]
- inhibition [3]: inactive
- inhibition [5]: inactive
- inhibition [12]: inactive
- inhibition [20]: inactive
- Activity [22]: < 5%
- inhibition [28]: inactive
